From the NIST ThermoML archive (doi:10.1021/je049534w)

Conditions: Liquid; for speed of sound: Linear variable-path acoustic interferometer

CCCCn1cc[n+](C)c1.F[B-](F)(F)F [1-butyl-3-methylimidazolium tetrafluoroborate]
Conditions | mass density [kg/m3] | speed of sound [m/s]
283.15 K, 100 kPa | – | 1599.5
283.15 K, 4956 kPa | – | 1612.5
283.15 K, 9954 kPa | – | 1626.2
283.15 K, 20130 kPa | – | 1653.1
283.15 K, 30003 kPa | – | 1678.3
283.15 K, 44948 kPa | – | 1714.7
283.15 K, 59705 kPa | – | 1749
283.15 K, 79788 kPa | – | 1793
283.15 K, 99235 kPa | – | 1833.6
283.15 K, 124380 kPa | – | 1882.9
283.15 K, 151416 kPa | – | 1932.2
293.15 K, 100 kPa | – | 1570.2
293.15 K, 5094 kPa | – | 1584
293.15 K, 10075 kPa | – | 1597.7
293.15 K, 20080 kPa | – | 1624.4
293.15 K, 59673 kPa | – | 1721
293.15 K, 98994 kPa | – | 1806.1
293.15 K, 151068 kPa | – | 1907.3
298.34 K, 100 kPa | 1205.03 | –
298.34 K, 700 kPa | 1205.32 | –
298.34 K, 5280 kPa | 1207.44 | –
298.34 K, 10600 kPa | 1209.87 | –
298.34 K, 15920 kPa | 1212.24 | –
298.34 K, 20540 kPa | 1214.26 | –
298.34 K, 25000 kPa | 1216.18 | –
298.34 K, 30710 kPa | 1218.62 | –
298.34 K, 35190 kPa | 1220.47 | –
298.34 K, 40660 kPa | 1222.73 | –
298.34 K, 44370 kPa | 1224.21 | –
298.34 K, 49660 kPa | 1226.32 | –
298.34 K, 54340 kPa | 1228.16 | –
298.34 K, 59230 kPa | 1230.05 | –
303.15 K, 100 kPa | – | 1544.9
303.15 K, 5080 kPa | – | 1558.6
303.15 K, 10091 kPa | – | 1572.5
303.15 K, 20063 kPa | – | 1599.5
303.15 K, 59767 kPa | – | 1697
303.15 K, 99007 kPa | – | 1782.6
303.15 K, 124609 kPa | – | 1834
303.23 K, 100 kPa | 1201.29 | –
303.23 K, 8780 kPa | 1205.3 | –
303.23 K, 11170 kPa | 1206.4 | –
303.23 K, 15230 kPa | 1208.22 | –
303.23 K, 20270 kPa | 1210.43 | –
303.23 K, 24890 kPa | 1212.44 | –
303.23 K, 30670 kPa | 1214.92 | –
303.23 K, 34770 kPa | 1216.66 | –
303.23 K, 40020 kPa | 1218.85 | –
303.23 K, 44310 kPa | 1220.61 | –
303.23 K, 49500 kPa | 1222.73 | –
303.23 K, 54490 kPa | 1224.75 | –
303.23 K, 59820 kPa | 1226.85 | –
313.01 K, 100 kPa | 1194.59 | –
313.01 K, 4130 kPa | 1196.19 | –
313.01 K, 10180 kPa | 1198.82 | –
313.01 K, 15650 kPa | 1201.26 | –
313.01 K, 21300 kPa | 1203.75 | –
313.01 K, 24580 kPa | 1205.19 | –
313.01 K, 30110 kPa | 1207.62 | –
313.01 K, 35390 kPa | 1209.88 | –
313.01 K, 44700 kPa | 1213.84 | –
313.01 K, 49720 kPa | 1215.92 | –
313.01 K, 54430 kPa | 1217.91 | –
313.01 K, 59450 kPa | 1219.95 | –
313.15 K, 100 kPa | – | 1525.2
313.15 K, 5091 kPa | – | 1539.3
313.15 K, 10185 kPa | – | 1554
313.15 K, 20070 kPa | – | 1581
313.15 K, 59719 kPa | – | 1679.3
313.15 K, 99014 kPa | – | 1765.8
313.15 K, 123975 kPa | – | 1816.6
313.15 K, 151204 kPa | – | 1870
322.85 K, 100 kPa | 1187.85 | –
322.85 K, 3730 kPa | 1189.5 | –
322.85 K, 6220 kPa | 1190.68 | –
322.85 K, 10020 kPa | 1192.47 | –
322.85 K, 14870 kPa | 1194.68 | –
322.85 K, 20450 kPa | 1197.2 | –
322.85 K, 25400 kPa | 1199.38 | –
322.85 K, 31090 kPa | 1201.87 | –
322.85 K, 34850 kPa | 1203.51 | –
322.85 K, 41130 kPa | 1206.23 | –
322.85 K, 44880 kPa | 1207.85 | –
322.85 K, 49830 kPa | 1209.95 | –
322.85 K, 54520 kPa | 1211.91 | –
322.85 K, 59920 kPa | 1214.2 | –
323.15 K, 100 kPa | – | 1503.4
323.15 K, 4999 kPa | – | 1517.8
323.15 K, 10202 kPa | – | 1533.4
323.15 K, 20046 kPa | – | 1561.4
323.15 K, 59977 kPa | – | 1662.1
323.15 K, 99014 kPa | – | 1748.8
323.15 K, 123945 kPa | – | 1798.9
323.15 K, 151374 kPa | – | 1853.2
332.73 K, 100 kPa | 1181.05 | –
332.73 K, 4130 kPa | 1182.92 | –
332.73 K, 6350 kPa | 1183.98 | –
332.73 K, 11210 kPa | 1186.3 | –
332.73 K, 15220 kPa | 1188.15 | –
332.73 K, 20540 kPa | 1190.55 | –
332.73 K, 25280 kPa | 1192.7 | –
332.73 K, 30760 kPa | 1195.16 | –
332.73 K, 35080 kPa | 1197.05 | –
332.73 K, 40110 kPa | 1199.23 | –
332.73 K, 44860 kPa | 1201.24 | –
332.73 K, 49840 kPa | 1203.35 | –
332.73 K, 54760 kPa | 1205.7 | –
332.73 K, 59130 kPa | 1207.2 | –
